# Assay results published in publication PMC3349722, “Prediction of Drug-Target Interactions and Drug Repositioning via Network-Based Inference” (PLoS Computational Biology, 2012).
# Counter-ions that a name gives are not always drawn. Like-named read-outs stand apart in the source and are kept apart here.
# How the values were obtained:
# ERβ = ERβ (Homo sapiens, UniProt Q92731); assay: Yeast two-hybrid system-based assay (ERβ LBD/SRC1, α-galactosidase), agonist and antagonist mode; format: cell-based; conditions: for Inhibitive Ratio% (10 μM), ERβ: antagonist assay with 1 nM E2; for IC50: read-out: IC50 on ERβ (antagonistic activity)
# Chain of ERβ (Q92731 248-510): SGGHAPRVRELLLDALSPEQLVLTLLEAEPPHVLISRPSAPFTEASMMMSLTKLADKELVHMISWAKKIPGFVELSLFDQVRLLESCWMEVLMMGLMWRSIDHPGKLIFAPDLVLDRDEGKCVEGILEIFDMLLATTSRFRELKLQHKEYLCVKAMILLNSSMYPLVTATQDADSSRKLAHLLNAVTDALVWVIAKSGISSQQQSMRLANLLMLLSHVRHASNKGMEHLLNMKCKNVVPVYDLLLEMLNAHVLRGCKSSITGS
# human recombinant DPP-IV = biological target: T1, human recombinant DPP-IV (Homo sapiens, UniProt P27487); assay: Dipeptidyl peptidase-IV inhibition assay (DPP-IV Drug Discovery Kit, fluorimetric); format: biochemical; conditions: for Inhibition Ratio (%) to DPP-IV: test concentration not given
# T1 construct: purchased Biomol
# T1 sequence (P27487 whole entry): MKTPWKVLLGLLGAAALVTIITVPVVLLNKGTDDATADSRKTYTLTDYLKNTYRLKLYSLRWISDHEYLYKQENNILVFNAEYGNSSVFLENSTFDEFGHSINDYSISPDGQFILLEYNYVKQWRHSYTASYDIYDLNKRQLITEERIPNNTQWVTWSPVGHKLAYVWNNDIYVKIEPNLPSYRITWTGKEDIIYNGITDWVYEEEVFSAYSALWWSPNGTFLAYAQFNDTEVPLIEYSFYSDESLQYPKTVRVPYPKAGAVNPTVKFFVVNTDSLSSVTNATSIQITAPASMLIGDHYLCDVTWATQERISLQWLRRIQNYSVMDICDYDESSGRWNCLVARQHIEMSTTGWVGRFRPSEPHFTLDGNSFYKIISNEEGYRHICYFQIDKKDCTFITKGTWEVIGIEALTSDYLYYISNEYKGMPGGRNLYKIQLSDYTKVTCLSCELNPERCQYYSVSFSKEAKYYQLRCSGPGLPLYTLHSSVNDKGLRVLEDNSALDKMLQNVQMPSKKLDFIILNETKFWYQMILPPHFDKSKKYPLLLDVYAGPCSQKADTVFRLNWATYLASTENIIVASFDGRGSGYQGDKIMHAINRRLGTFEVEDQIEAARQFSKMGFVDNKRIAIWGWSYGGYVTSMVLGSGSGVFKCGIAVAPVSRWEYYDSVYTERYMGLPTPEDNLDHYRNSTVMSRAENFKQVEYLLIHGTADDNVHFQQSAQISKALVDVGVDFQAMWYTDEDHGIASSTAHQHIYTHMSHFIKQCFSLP
# Experimental: The inhibitory effects of compounds on human recombinant DPP-IV was determined using a DPP-IV Drug Discovery Kit (Biomol, USA) according to the manufacturer's instructions. The activity of DPP-IV was detected in a Synergy™ 2 Multi-Mode Microplate Reader (BioTek) at an excitation wavelength of 380 nm and an emission wavelength of 460 nm. […] IC50 values were determined using the GraphPad Prism 4 software with three independent determinations.
# Table S4. The inhibitive activities profiles of nine approved drugs for dipeptidyl peptidase -IV
# (DPP -IV ) enzyme inhibition assay. The inhibitory effects of compounds on human recombinant
# DPP4 was determined using a DPP -IV Drug Discovery Kit (Biomol, USA) according to the
# manufacturer ’s instructions. The DPP-IV Drug Discovery Kit is a complete assay system designed
# to screen DPP 4 small molecule inhibitors. The fluorimetric assay is based on the cleavage of
# 7- a mino -4-methylcoumarin (AMC) moiety from peptide substrate (H-Gly-P ro-AMC), which
# increases its fluorescence intensity at 460 nm. Compounds dilutions were prepared from stock in
# DMSO and diluted with assay buffer for inhibition assay. A 40 μL solution of DPP -IV enzyme in
# assa y buffer was incubated with 10μ L of various concentrations of test compoundsolutions for 10
# min at room temperature. The reaction was initiated b y the addition of 50 μL of H-Gly-P ro- AMC
# with a final concentration of 5 μM. The activity of DPP4 was detected in a Synergy™ 2
# Multi-Mode Microplate Reader (BioTek) at an excitation wavelength of 380 nm and an emission
# wavelength of 460 nm. […] IC 50 values were
# determined by using the G raphP ad Prism 4 software with three independent determinations.
# ERα = biological target: T2, ERα (Homo sapiens, UniProt P03372); assay: Yeast two-hybrid system-based assay (ERα LBD/SRC1, α-galactosidase), agonist and antagonist mode; format: cell-based; conditions: for Agonistic activities (10 μM), ERα: DMSO = 1; for Inhibitive ratio % (10 μM), ERα: antagonist assay with 1 nM E2; for EC50: agonist testing
# T2 sequence (P03372 301-553): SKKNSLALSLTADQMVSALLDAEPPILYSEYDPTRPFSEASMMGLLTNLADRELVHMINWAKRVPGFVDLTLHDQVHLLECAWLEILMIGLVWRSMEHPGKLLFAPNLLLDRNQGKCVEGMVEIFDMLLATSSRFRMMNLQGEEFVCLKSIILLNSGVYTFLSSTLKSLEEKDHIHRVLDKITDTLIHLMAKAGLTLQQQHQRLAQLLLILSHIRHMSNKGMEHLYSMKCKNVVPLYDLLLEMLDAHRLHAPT
# ERα and ERβ = assay: Yeast two-hybrid system-based assay, summary statements on ER (subtype not separated)
# MDA-MB-231 cells = assay: MTT assay of cell proliferation; format: cell-based; conditions: Homo sapiens, MDA-MB-231 breast cancer cell line, 24 h, read-out: Antiproliferative activity IC50
# Experimental: Cell proliferation was quantified by MTT assay. MDA-MB-231 cells were seeded at a density of 1.5×10^4 in a 96-well plate with DMEM/F12 supplemented with 10% charcoal stripped FBS without phenol red, and then incubated with the tested compounds in humidified air containing 5% CO2 at 37°C. After incubation for 24 h, 20 µL of 5 mg/mL MTT was added and incubated for another 4 h. Then the converted dye was dissolved in 100 µL of DMSO and the absorbance was measured at 570 nm.
Compound,"Inhibitive Ratio% (10 μM), ERβ (ERβ)","Agonistic activities (10 μM), ERβ (ERβ; DMSO = 1)","Agonistic activities (10 μM), ERα (ERα)",also measured
17-hydroxyprogesterone,13.01%,0.961,,
NC(=O)N1c2ccccc2C=Cc2ccccc21 [Carbamazepine],,,,Inhibition Ratio (%) to DPP-IV (human recombinant DPP-IV): 19.67%
CC(C)(O)c1ccccc1CC[C@@H](SCC1(CC(=O)O)CC1)c1cccc(/C=C/c2ccc3ccc(Cl)cc3n2)c1 [Montelukast],,,,Inhibition Ratio (%) to DPP-IV (human recombinant DPP-IV): 49.7%; IC50 (human recombinant DPP-IV; three independent determinations): 9790 nM
CC[C@@H]1C(=O)OC[C@@H]1Cc1cncn1C.Cl [Pilocarpine HCl],,,1.008,
CC[C@H](C)C(=O)O[C@H]1C[C@@H](C)C=C2C=C[C@H](C)[C@H](CC[C@@H]3C[C@@H](O)CC(=O)O3)[C@H]21 [Lovastatin],,,,Inhibition Ratio (%) to DPP-IV (human recombinant DPP-IV): 9.49%
NS(=O)(=O)Cc1noc2ccccc12 [Zonisamide],,1.029,,
CN(C)C(=O)C(CCN1CCC(O)(c2ccc(Cl)cc2)CC1)(c1ccccc1)c1ccccc1 [Loperamide],0%,0.910,0.934,"Inhibitive ratio % (10 μM), ERα (ERα): 6.18%"
O=C(O)Cc1ccccc1Nc1c(Cl)cccc1Cl [Diclofenac],,0.846,,IC50 or EC50 values on ER (ERα and ERβ): less than 10 μM; IC50 (ERβ): 2320 nM
CCc1ccc(CCOc2ccc(CC3SC(=O)NC3=O)cc2)nc1 (stereo not shown) [Pioglitazone],,,,Inhibition Ratio (%) to DPP-IV (human recombinant DPP-IV): 18.63%
O=c1[nH]c2ccccc2n1C1CCN(CCCC(c2ccc(F)cc2)c2ccc(F)cc2)CC1 [Pimozide],,,0.955,"Inhibitive ratio % (10 μM), ERα (ERα): 4.58%"
CS(=O)(=O)CCNCc1ccc(-c2ccc3ncnc(Nc4ccc(OCc5cccc(F)c5)c(Cl)c4)c3c2)o1 [Lapatinib],,,0.995,"Inhibition Ratio (%) to DPP-IV (human recombinant DPP-IV): 39.64%; Inhibitive ratio % (10 μM), ERα (ERα): 14.01%"
"C[C@]12CC[C@@H]3c4ccc(O)cc4CC[C@H]3[C@@H]1CC[C@@H]2O [E2, estradiol]",,,,"Agonistic activities, ERβ, E2 control (ERβ; 1 nM, DMSO = 1): 5.77"
CCC1(c2ccc(N)cc2)CCC(=O)NC1=O (racemic) [Dl-aminoglutethimide],,,0.956,
CN(C)CCCN1c2ccccc2Sc2ccc(Cl)cc21 [Chlorpromazine HCl],3.11%,0.981,,
CC#C[C@]1(O)CC[C@H]2[C@@H]3CCC4=CC(=O)CCC4=C3[C@@H](c3ccc(N(C)C)cc3)C[C@@]21C [Mifepristone],27.16%,1.080,1.463,"Inhibitive ratio % (10 μM), ERα (ERα): 0%"
N[C@@H]1C[C@H]1c1ccccc1 (racemic) [Tranylcypromine],0%,0.965,0.988,"Inhibitive ratio % (10 μM), ERα (ERα): 4.3%"
CCC(C)(C)C(=O)O[C@H]1C[C@@H](C)C=C2C=C[C@H](C)[C@H](CC[C@@H]3C[C@@H](O)CC(=O)O3)[C@H]21 [Simvastatin],,,,IC50 (MDA-MB-231 cells): 1490 nM
CN/C(=N/CCSCc1nc[nH]c1C)NC#N [Cimetidine],,,1.018,"Inhibitive ratio % (10 μM), ERα (ERα): 2.4%"
COC(=O)C1=C(C)NC(C)=C(C(=O)OCCN(C)Cc2ccccc2)C1c1cccc([N+](=O)[O-])c1 (stereo not shown) [Nicardipine],,,0.962,"Inhibition Ratio (%) to DPP-IV (human recombinant DPP-IV): 21.24%; Inhibitive ratio % (10 μM), ERα (ERα): 15.21%"
CCC(C)n1ncn(-c2ccc(N3CCN(c4ccc(OCC5COC(Cn6cncn6)(c6ccc(Cl)cc6Cl)O5)cc4)CC3)cc2)c1=O (stereo not shown) [Itraconazole],51.99%,1.890,4.132,"Inhibitive ratio % (10 μM), ERα (ERα): 8.19%; EC50 (ERα; REC50 on ERα (concentration showing 50% of the maximum agonistic activity of E2), relative to E2): 320 nM; EC50 (ERα; read-out: EC50 on ERα (agonistic activity)): 200 nM; IC50 or EC50 values on ER (ERα and ERβ): less than 1 μM; IC50 or EC50 values on ER (ERα and ERβ; listed as itraconazole): less than 10 μM; IC50 (ERβ; antagonist assay): 280 nM"
Cc1ccc(C)c(OCCCC(C)(C)C(=O)O)c1 [Gemfibrozil],,,,Inhibition Ratio (%) to DPP-IV (human recombinant DPP-IV): 17.35%
COc1ccc2[nH]cc(CCNC(C)=O)c2c1 [Melatonin],0%,0.914,,
N#Cc1ccc(C(c2ccc(C#N)cc2)n2cncn2)cc1 [Letrozole],0%,0.846,,
CC(=O)OCC(CCn1cnc2cnc(N)nc21)COC(C)=O [Famciclovir],0%,0.894,,
Nc1nc2c(ncn2CCC(CO)CO)c(=O)[nH]1 [Penciclovir],0%,0.947,,
CC(=O)N1CCN(c2ccc(OCC3COC(Cn4ccnc4)(c4ccc(Cl)cc4Cl)O3)cc2)CC1 (stereo not shown) [Ketoconazole],,0.853,,IC50 (MDA-MB-231 cells): 8950 nM; IC50 or EC50 values on ER (ERα and ERβ): less than 1 μM; IC50 or EC50 values on ER (ERα and ERβ; listed as ketoconazole): less than 10 μM; IC50 (ERβ): 790 nM
CC(C)C(=O)Nc1ccc([N+](=O)[O-])c(C(F)(F)F)c1 [Flutamide],2.83%,0.949,,
C=CCN1CC[C@]23c4c5ccc(O)c4O[C@H]2C(=O)CC[C@@]3(O)[C@H]1C5 [Naloxone HCl],0%,1.051,,
CC(C)(C#N)c1cc(Cn2cncn2)cc(C(C)(C)C#N)c1 [Anastrozole],,1.011,,
